Assay results published in patent US10760110B2, “Antibiotic testing and screening system” (priority 2017, dated 2020).
≈ marks a conversion by molar mass, not a printed value.

Tests used:
[1] = test system: K. pneumoniae NVT1001 harbouring the pACYC177 plasmid with blaOXA-48; experiment: Broth microdilution MIC (CLSI); type: cell-based; settings: Klebsiella pneumoniae; broth microdilution test; NVT1001 with pACYC177 blaOXA-48
Experimental: The MICs of antibiotics were determined using the Etest (Biodisk AB, Sweden) according to the manufacturer's instructions. The MICs from the Etest, which fall between standard two-fold dilutions, were rounded up to the next highest two-fold value. The MICs of ceftazidime and cefotaxime against K. pneumoniae NVT1001 harbouring the pACYC177 plasmid with blaOXA-48 were further determined using a broth microdilution test according to the recommendations of the CLSI,^25 and the results were interpreted according to the breakpoints established by the CLSI in 2017.^25 Meanwhile, due to the lack of CLSI breakpoints in 2016 and 2017, the results for cephalothin were interpreted according to the breakpoints established by the CLSI in 2015,^26 and the results for moxifloxacin were interpreted according to the breakpoints established by the EUCAST in 2017.^27

[2] = test system: clinical K. pneumoniae isolate producing the carbapenemase OXA-48; settings: previous study; cited from earlier work
[3] = test system: clinical K. pneumoniae isolate producing the carbapenemase OXA-48; settings: previous study; cited from earlier work; remark: listed apart in the source
[4] = test system: K. pneumoniae NVT1001 harbouring the pACYC177 plasmid with blaOXA-48; experiment: Mouse peritonitis-sepsis infection model; type: in vivo, Klebsiella pneumoniae
Experimental: Pathogen-free 6- to 8-week-old male BALB/c mice were obtained from the National Laboratory Animal Center (Taiwan) and maintained in the pathogen-free vivarium of the Laboratory Animal Center of National Defense Medical Center (Taiwan). K. pneumoniae NVT1001 harbouring the pACYC177 plasmid with blaOXA-48 was cultured overnight at 37° C. in BHI broth and then diluted (1:100) in fresh BHI broth. The culture was incubated until the mid-exponential growth phase, and the cells were then washed once, resuspended in 0.85% sterile saline, and adjusted to the desired concentrations according to the OD600 value. The concentrations were verified by plating the cells to determine viable counts. […] Meanwhile, antibiotic doses were prepared in 0.85% sterile saline. At 1 hour post-inoculation, antibiotic or 0.85% sterile saline alone was administered as a single subcutaneous injection with a volume of 0.3 mL per dose. The mice were then monitored daily for 7 days to measure survival.

[5] = test system: A. baumannii KW1 strains with β-lactamase plasmids; experiment: Etest MIC of β-lactams, extended-spectrum β-lactamase, AmpC β-lactamase or carbapenemase (Table 18); type: cell-based, Acinetobacter baumannii; settings: production of OXA-type carbapenemases
Procedure, shortened: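 A. baumannii KW1 transformed by electroporation with pYMAb5 or pYMAb5Tc carrying PCR-cloned resistance genes plus flanking regions from clinical plasmids. MICs by Etest; values between two-fold dilutions rounded up to the next two-fold value.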

CC(C)(O/N=C(\C(=O)N[C@@H]1C(=O)N2C(C(=O)[O-])=C(C[n+]3ccccc3)CS[C@H]12)c1csc(N)n1)C(=O)O [Ceftazidime]
MIC [1]: 0.5 µg/mL (≈ 0.915 µM) | MIC relative to that of cefotaxime [2]: 4 fold lower | ED50 (comparison) [3]: lower than that of cefotaxime | in vivo efficacy (comparison) ([4]; BALB/c mice): higher than that of cefotaxime | ED50 ([4]; Klebsiella pneumoniae, sc, read-out: estimated ED50): 30 mg/kg | effects on the MIC [5]: no increase effects
